From patent US9163027B2, “Substituted triazolo-pyrimidine compounds for modulating cell proliferation differentiation and survival” (STATegics, Inc., priority 2012, dated 2015) come the findings set out here.

Structures are written as SMILES.

The test system of one assay is PC12 cells. Kind of assay: PC12 cell survival under serum deprivation (CellTiter-Glo). The class given is cell-based, rat. The conditions noted are these: 72 h serum-free; NS = RLU increased <25% at 5 uM. Here is the method: Each culture condition was performed in quadruplicate in each experiment and the mean values were calculated. The results represent mean±SEM of relative light unit values when compared to the mean values obtained in the presence of the medium alone. A total of 13 experiments were performed and the statistical significance was analyzed using GraphPad Prism software using ANOVA, followed by paired t-test. The symbol * indicates P-values <0.01.
PC12 cells were cultured in DMEM supplemented with 10% fetal calf serum and 5% horse serum. […] Cell viability was analyzed by CellTiter-Glo® reagent (Promega).
PC12 cells were cultured in DMEM supplemented with 10% fetal calf serum and 5% horse serum. […] Cell survival of the serum-starved cells was analyzed by CellTiter-Glo® reagent luminescence reading.
FIG. 2 illustrates neuroprotective effects of Compounds 1-5 when tested in PC12 cell protection assays. PC12 cells were subjected to serum deprivation as described under FIG. 1.
PC12 cells were cultured in DMEM supplemented with 10% fetal calf serum and 5% horse serum. […] Cell survival of the serum-starved cells was analyzed by CellTiter-Glo® reagent luminescence reading (relative light units, “RLU”). […] “NS” indicates RLU increased <25% when compounds were tested at 5 uM.
(In general: In ATP-based viability assays light output follows the ATP content of the culture.)
Consider `Cc1cc(C)n2nc(SCCOc3ccc(F)c(Cl)c3)nc2n1` [Example 6], for which the “PC12 cell proliferation (CellTiter-Glo ®) Concentration at which RLU increased >25% compared to medium control” value is less than 5 µM.

Turning to `Cc1cc(C)n2nc(SCCOc3ccncc3)nc2n1` [Example 31, 4-[2-({5,7-dimethyl-[1,2,4]triazolo[1,5-a]pyrimidin-2-yl}sulfanyl)ethoxy]pyridine], the “PC12 cell proliferation (CellTiter-Glo ®) Concentration at which RLU increased >25% compared to medium control” value is reported as “NS (RLU increased <25% when compounds were tested at 5 uM)”.

As to `Cc1cc(C)n2nc(SCCOc3ccc(CCN(C)C)cc3)nc2n1` [Example 32, (2-{4-[2-({5,7-dimethyl-[1,2,4]triazolo[1,5-a]pyrimidin-2-yl}sulfanyl)ethoxy]phenyl}ethyl)-dimethylamine], the “PC12 cell proliferation (CellTiter-Glo ®) Concentration at which RLU increased >25% compared to medium control” value is recorded as “NS (RLU increased <25% when compounds were tested at 5 uM)”.

In the case of `Cc1cc(C)n2nc(SCCOC3CCCCC3)nc2n1` [Example 33, 2-{[2-(cyclohexyloxy)ethyl]sulfanyl}-5,7-dimethyl-[1,2,4]triazolo[1,5-a]pyrimidine], the “PC12 cell proliferation (CellTiter-Glo ®) Concentration at which RLU increased >25% compared to medium control” value is given as “NS (RLU increased <25% when compounds were tested at 5 uM)”.

Still in this assay, the particulars now being: Rattus norvegicus, PC-12; 72 h serum-free; NS = RLU increased <25% at 5 uM; read-out: PC12 cell proliferation (CellTiter-Glo ®) Concentration at which RLU increased >25% compared to medium control.
For `Cc1ccn2nc(SCCOc3ccc(Cl)cc3)nc2n1` [Example 26, 2-{[2-(4-chlorophenoxy)ethyl]sulfanyl}-5-methyl-[1,2,4]triazolo[1,5-a]pyrimidine], the minimal effective concentration was less than 5 µM.

`CCc1cc(CC)n2nc(CCCN(CCOC(C)=O)c3ccc(F)cc3)nc2n1` [Example 21, 2-[(3-{5,7-diethyl-[1,2,4]triazolo[1,5-a]pyrimidin-2-yl}propyl)(4-fluorophenyl)amino]ethyl acetate]: the minimal effective concentration was less than 5 µM.

For `CCc1cc(CC)n2nc(NCCOc3ccccc3)nc2n1` [Example 18, 5,7-diethyl-N-(2-phenoxyethyl)-[1,2,4]triazolo[1,5-a]pyrimidin-2-amine], the minimal effective concentration was less than 5 µM.

`CCc1cc(CC)n2nc(CCCN(CCO)c3ccc(F)cc3)nc2n1` [Example 20, 2-[(3-{5,7-diethyl-[1,2,4]triazolo[1,5-a]pyrimidin-2-yl}propyl)(4-fluorophenyl)amino]ethan-1-ol]: the minimal effective concentration is less than 5 µM.

`CCc1ccc(OCCSc2nc3nc(C)cc(C)n3n2)cc1` [Example 8, 2-{[2-(4-ethylphenoxy)ethyl]sulfanyl}-5,7-dimethyl-[1,2,4]triazolo[1,5-a]pyrimidine]: the minimal effective concentration was less than 5 µM.

Turning to `Cc1cc(C(F)(F)F)n2nc(CCCOc3ccc(Cl)cc3)nc2n1` [Example 22, 2-[3-(4-chlorophenoxy)propyl]-5-methyl-7-(trifluoromethyl)-[1,2,4]triazolo[1,5-a]pyrimidine], the minimal effective concentration is less than 5 µM.

For `Cc1cc(C)n2nc(SCCOc3ccc(Cl)c(Cl)c3)nc2n1` [Example 5, 2-{[2-(3,4-dichlorophenoxy)ethyl]sulfanyl}-5,7-dimethyl-[1,2,4]-triazolo[1,5-a]pyrimidine], the minimal effective concentration was less than 5 µM.

With `Cc1cc(C)n2nc(SCCOc3ccc(F)cc3)nc2n1` [Example 3, 2-{[2-(4-fluorophenoxy)ethyl]sulfanyl}-5,7-dimethyl-[1,2,4]triazolo[1,5-a]pyrimidine], the minimal effective concentration is less than 5 µM.

On to `Cc1cc(C)n2nc(OCCSc3ccc(Cl)cc3)nc2n1` [Example 35, 2-{2-[(4-chlorophenyl)sulfanyl]ethoxy}-5,7-dimethyl-[1,2,4]triazolo[1,5-a]pyrimidine], for which the minimal effective concentration was less than 5 µM.

Turning to `Cc1cc(C)n2nc(SCCOc3ccc(F)c(F)c3)nc2n1` [Example 7, 2-{[2-(3,4-difluorophenoxy)ethyl]sulfanyl}-5,7-dimethyl-[1,2,4]triazolo[1,5-a]pyrimidine], the minimal effective concentration is less than 5 µM.

On to `CC(C)c1cc(C(C)C)n2nc(CCCOc3ccc(F)cc3)nc2n1` [Example 29, 2-[3-(4-fluorophenoxy)propyl]-5,7-bis(propan-2-yl)-[1,2,4]triazolo[1,5-a]pyrimidine], for which the minimal effective concentration was less than 5 µM.

Regarding `Fc1ccc(OCCCc2nc3nc(C(F)F)cc(C(F)F)n3n2)cc1` [Example 30, 5,7-bis(difluoromethyl)-2-[3-(4-fluorophenoxy)propyl]-[1,2,4]triazolo[1,5-a]pyrimidine], the minimal effective concentration is less than 5 µM.

With `Cc1cc(C)n2nc(SCCOc3ccc(Cl)c(F)c3)nc2n1` [Example 4, 2-{[2-(4-chloro-3-fluorophenoxy)ethyl]sulfanyl}-5,7-dimethyl-[1,2,4]triazolo[1,5-a]pyrimidine], the minimal effective concentration is less than 5 µM.

Consider `CCc1cc(CC)n2nc(OCCOc3ccc(Cl)cc3)nc2n1` [Example 16, 5,7-diethyl-2-[-2-(4-chlorophenoxy)ethoxy]-[1,2,4]triazolo[1,5-a]pyrimidine], for which the minimal effective concentration was less than 5 µM.

On to `Cc1ccnc2nc(SCCOc3ccc(Cl)cc3)nn12` [Example 27, 2-{[2-(4-chlorophenoxy)ethyl]sulfanyl}-7-methyl-[1,2,4]-triazolo[1,5-a]pyrimidine], for which the minimal effective concentration was less than 5 µM.

`CCc1cc(CC)n2nc(OCCN(CCO)c3ccccc3)nc2n1` [Example 17, 2-{[2-({5,7-Diethyl-[1,2,4]triazolo[1,5-a]pyrimidin-2-yl}oxy)ethyl](phenyl)amino}ethan-1-ol]: the minimal effective concentration is less than 5 µM.

`Cc1cc(C)n2nc(SCCN(CCO)c3ccccc3)nc2n1` [Example 9, 2-{[2-({5,7-Dimethyl-[1,2,4]triazolo[1,5-a]pyrimidin-2-yl}sulfanyl)ethyl](phenyl)amino}ethan-1-ol]: the minimal effective concentration was less than 5 µM.

For the compound `Clc1ccc(OCCSc2nc3ncccn3n2)cc1` [Example 25, 2-{[2-(4-chlorophenoxy)ethyl]sulfanyl}-[1,2,4]-triazolo[1,5-a]pyrimidine], the minimal effective concentration is less than 5 µM.

In the case of `Cc1cc(C)n2nc(SCCc3c[nH]c4ccccc34)nc2n1` [Example 34, 3-[2-({5,7-dimethyl-[1,2,4]triazolo[1,5-a]pyrimidin-2-yl}sulfanyl)ethyl]-1H-indole], the minimal effective concentration is less than 5 µM.

`CCc1cc(CC)n2nc(OCCN(CCO)c3ccc(F)cc3)nc2n1` [Example 14, 2-{[2-({5,7-diethyl-[1,2,4]triazolo[1,5-a]pyrimidin-2-yl}oxy)ethyl](4-fluorophenyl)amino}ethan-1-ol]: the minimal effective concentration was less than 5 µM.

On to `Cc1cc(C)n2nc(OCCCC3CCCC3)nc2n1` [Example 12, 2-(3-cyclopentylpropoxy)-5,7-dimethyl-[1,2,4]-triazolo[1,5-a]pyrimidine], for which the minimal effective concentration was less than 5 µM.

For `CCc1cc(CC)n2nc(OCCOc3ccc(F)cc3)nc2n1` [Example 15, 5,7-diethyl-2-[2-(4-fluorophenoxy)ethoxy]-[1,2,4]triazolo[1,5-a]pyrimidine], the minimal effective concentration was less than 5 µM.

Take `Cc1cc(C(F)(F)F)n2nc(SCCOc3ccc(Cl)cc3)nc2n1` [Example 23, 2-{[2-(4-chlorophenoxy)ethyl]sulfanyl}-5-methyl-7-(trifluoromethyl)-[1,2,4]-triazolo[1,5-a]pyrimidine]: the minimal effective concentration is less than 5 µM.

In the case of `Cc1cc(C)n2nc(SCCOc3ccccc3)nc2n1` [Example 2, 5,7-dimethyl-2-[(2-phenoxyethyl)sulfanyl]-[1,2,4]-triazolo[1,5-a]pyrimidine], the minimal effective concentration was less than 5 µM.

Consider `FC(F)(F)c1cc(C(F)(F)F)n2nc(SCCOc3ccc(Cl)cc3)nc2n1` [Example 24, 2-{[2-(4-chlorophenoxy)ethyl]sulfanyl}-5,7-bis(trifluoromethyl)-[1,2,4]-triazolo[1,5-a]pyrimidine], for which the minimal effective concentration was less than 5 µM.

`Cc1cc(C)n2nc(NCCOc3ccc(Cl)cc3)nc2n1` [Example 19, N-[2-(4-chlorophenoxy)ethyl]-5,7-dimethyl-[1,2,4]triazolo[1,5-a]pyrimidin-2-amine]: the minimal effective concentration is less than 5 µM.
